Data from patent US8598145B2, “Mitochondrially delivered anti-cancer compounds” (priority 2008, dated 2013).

Assays:
[1] = system: HCT-116; assay: MTT viability assay (IC50); format: cell-based, human; conditions: HCT-116, ~60% confluency
From the text: (§1) The following cell lines used in this study were obtained from ATCC, unless specified otherwise: Human T lymphoma cells Jurkat, human mesothelioma cells Meso-I, MM-BI, Ist-Mes, Ist-Mes-2 (Pass, H. I. et al. Characteristics of nine newly derived mesothelioma cell lines. Ann. Thorac. Surg. 59, 835-844 (1995)), human breast cancer cells MCF-7 (erbB2-low) and MDA-MB-453 (erbB2-high), human colorectal cells HCT-116, human hepatocarcinoma cells Huh-7, mouse mesothelioma cells AE17 (Jackaman, C. et al. IL-2 intratumoral immunotherapy enhances CD8+ T cells that mediate destruction of tumor cells and tumor-associated vasculature: a novel mechanism for IL-2. J. Immunol. 171, […] (2003), human non-malignant mesothelial cells Met-5A, […] (Claycomb, W. C. et al. HL-1 cells: a cardiac muscle cell line that contracts and retains phenotypic characteristics of the adult cardiomyocyte. Proc. Natl. Acad. Sci. USA 95, 2979-2984 […]) and H9c2, and the human endothelial-like cells EAhy926 (Edgell, C. J., McDonald, C. C. & Graham, J. B. Permanent cell line expressing human factor VIII-related antigen established by hybridization. Proc. Natl. Acad. Sci. USA 80, 3734-3737 (1983)). Jurkat cells were grown in the RPMI medium while DMEM was used for other malignant cell lines and for Met-5A cells, supplemented with 10% FCS and antibiotics. HL-1 cells, maintained in fibronectin/gelatine-coated dishes, were grown in the Claycomb medium supplemented with noradrenalin (Claycomb, W. C. et al. HL-1 cells: a cardiac muscle cell line that contracts and retains phenotypic characteristics of the adult cardiomyocyte. Proc. Natl. Acad. Sci. USA 95, 2979-2984 […]), EAhy926 cells were grown in complete DMEM supplemented with HAT (Edgell, C. J., McDonald, C. C. & Graham, J. B. Permanent cell line expressing human factor VIII-related antigen established by hybridization. Proc. Natl. Acad. Sci. USA 80, 3734-3737 (1983)). Cells deficient in mtDNA (ρ^0 phenotype) were prepared as detailed in Weber, T. et al., (Mitochondria play a central role in apoptosis induced by α-tocopheryl succinate, an agent with anticancer activity. Comparison with receptor-mediated pro-apoptotic signaling. Biochemistry 42, 4277-4291 (2003)). Acquisition of the ρ^0 phenotype was confirmed by lack of expression by the cells of the mtDNA-encoded cytochrome c oxidase subunit II (COXII not shown). Chinese hamster lung fibroblasts deficient in complex I (B10 cells) (See, B. B. et al. Molecular remedy of complex I defects: rotenone-insensitive internal NADH-quinone oxidoreductase of Saccharomyces cerevisiae mitochondria restores the NADH oxidase activity of complex I-deficient mammalian cells. Proc. Natl. Acad. Sci. USA 95, 9167-9171 (1998)) and complex II (CybL^−/−; B9 cells) (Oostveen, F. G., Au, H. C., Meijer, P. J. & Scheffler, I. E. A Chinese hamster mutant cell line with a defect in the integral membrane protein CII-3 of complex II of the mitochondrial electron transport chain. J. Biol. Chem. 270: 26104-26108 (1995)) as well as the parental cells (B1 cells) (Oostveen, F. G., Au, H. C., Meijer, P. J. & Scheffler, I. E. A Chinese hamster mutant cell line with a defect in the integral membrane protein CII-3 of complex II of the mitochondrial electron transport chain. J. Biol. Chem. 270: 26104-26108 (1995)) were grown in DMEM with 10% FCS, antibiotics, 10 mg/ml glucose and non-essential aminoacids.
(§2) Toxicity of α-TOS, VE11S (“VES”), MitoVE3S, MitoVE5S, MitoVE7S, MitoVE9S, MitoVE11S (“MitoVES”), MitoVE11AE (“MitoVEAE”), MitoVE11F (“MitoVEF”), MitoVE11M (“MitoVEM”), and VES4TPP towards cancer cells was assessed on the basis of IC50, as detailed in Turanek, J., et al. ((2008). Liposomal formulation of vitamin E analogs as an efficient and selective anti-cancer treatment. Clin. Cancer Res. (submitted)). […]

[2] = system: MM-BI; assay: MTT viability assay (IC50); format: cell-based, human; conditions: ~60% confluency
From the text: as §1, §2

[3] = system: Ist-Mes; assay: MTT viability assay (IC50); format: cell-based, human; conditions: ~60% confluency
From the text: as §1, §2

[4] = system: Ist-Mes-2; assay: MTT viability assay (IC50); format: cell-based, human; conditions: Ist-Mes-2, ~60% confluency
From the text: as §1, §2

[5] = system: EAhy926; assay: MTT viability assay (IC50); format: cell-based, human
From the text: as §1, §2

[6] = system: MDA-MB-453; assay: MTT viability assay (IC50); format: cell-based, human; conditions: MDA-MB-453, ~60% confluency
From the text: as §1, §2

[7] = system: MCF-7; assay: MTT viability assay (IC50); format: cell-based, human; conditions: MCF-7, ~60% confluency
From the text: as §1, §2

[8] = system: Met5A; assay: MTT viability assay (IC50); format: cell-based, human; conditions: ~60% confluency
From the text: as §1, §2

[9] = system: Jurkat; assay: MTT viability assay (IC50); format: cell-based, human
From the text: as §1, §2

[10] = system: Meso-2; assay: MTT viability assay (IC50); format: cell-based, human; conditions: Meso-2, ~60% confluency
From the text: as §1, §2

[11] = system: T lymphoma cells; conditions: medium pH ~6.2 compared to pH 7.2; cited from earlier work
[12] = EAhy926 treated at 100% confluency (top lines)
[13] = EAhy926 treated at ~50% confluency (bottom lines)
[14] = Jurkat, treated at 0.5 × 10^6 per ml, MTT viability curves
[15] = Table VI: Jurkat 0.5 × 10^6 per ml, analogs added as EtOH solution, MTT

Row | Compound | IC50 [1] [µM] | IC50 [2] [µM] | IC50 [3] [µM] | IC50 [4] [µM] | IC50 [5, 12] [µM] | IC50 [5, 13] [µM] | IC50 [6] [µM] | IC50 [7] [µM] | IC50 [8] [µM] | IC50 [9, 14] [µM] | IC50 [9, 15] [µM] | IC50 [10] [µM] | greater apoptogenic efficacy at acidic pH [11] [times]
1 | Cc1c(C)c2c(c(C)c1OC(=O)CCC(=O)O)CC[C@@](C)(CCC[C@H](C)CCC[C@H](C)CCCC(C)C)O2 [α-TOS, α-tocopheryl succinate, reference compound] | 31 ± 6 | 26 ± 4 | 24 ± 5 | 21 ± 3 | > 100 | 9.5 ± 2.7 | 28 ± 5 | 22 ± 4 | 69 ± 8 | 18 ± 3 | 18 ± 3 | 29 ± 5 | ~3
2 | Cc1c(C)c2c(c(C)c1OC(=O)CCC(=O)[O-])CCC(C)(CCCCCCCCCCC[P+](c1ccccc1)(c1ccccc1)c1ccccc1)O2 (stereo not shown) [MitoVE11S] | 2.8 ± 0.8 | 1.4 ± 0.3 | 2.2 ± 0.3 | 1.1 ± 0.25 | 32 ± 6 | 0.7 ± 0.2 | 3.3 ± 0.7 | 1.9 ± 0.5 | 21 ± 4 | 0.48 ± 0.1 | 0.48 ± 0.1 | 2.4 ± 0.5 | 
